The test system of series [1] is MC-9 cells. Put plainly: Exocytic light scatter changes on the flow cytometer. Type of series: cell-based. How it is done: (§1) Experiments were carried out in modified tyrodes buffer (MD which consisted of NaCl (137 mM), KCl (2.7 mM), CaCl2 (1.8 mM), MgCl2 (1 mM), Glucose (5.6 mM), Hepes (20 mM, pH 7.4), and bovine serum albumin (0.1%). MC-9 cells were spun at 400×g and the media was aspirated. The cells were then washed with MT, respun/aspirated and taken up in MT at a density of 5×10^6 cells/ml. Cells were then treated with either DMSO or ionophore for 30 minutes (or the time was varied if a timecourse). The cells were then pelleted with the supernatant collected for enzymatic analysis; in some cases, the cells then processed for flow cytometry. All stimulations were carried out at 37° C. Stimulations of RBL-2H3 cells were carried out by washing the adherent cells one time in MT and then adding warmed MT (1 ml/10^6 cells) containing the stimulus. The cells were incubated at 37° C. for 30 minutes and the supernatant was harvested for further analysis. In some of the examples, (Examples 4-6), the plate bound cells were stained for annexin and then removed from the flask using No-Zyme (Collaborative Research, Inc.) for further processing for flow cytometry. For stimulation of RBL-2H3 cells with antigen crosslinking the cells were incubated overnight with IgE anti-DNP (Sigma Chemical Co.) in complete media at a concentration of 50 ng/ml. The following day they were washed one time in MT and stimulated as described above with the exception that bovine serum albumin coupled to DNP was used as the stimulus at 100 ng/ml.
(§2) Cells processed for stimulation and staining were taken up in MT on ice and filtered through a 100 μm filter prior to cytometry. Cells were analyzed using a FACSCAN (Becton Dickinson Inc., laser line […]) or a Mo-Flo (Cytomation, Inc., laser lines 350 nM broadband (UV), 488 nm, and 647 nm) Cytometer. Cells were sorted, if desired using the Mo-Flo.
(§3) The cells were prepared as described in Example 2, and light scatter properties were determined.
On the technique in general: Flow cytometry measures light scatter and fluorescence of single cells or particles in a stream.

In series [2] the test system is RBL-2H3 cells. Described as above. Type of series: cell-based. The conditions noted are these: 0.5 ug/ml, 0 and 10 minutes. The procedure:
as §1, §2, §3

In series [3] the test system is MC-9 cells. Description: In situ enzymology (ELF-97 glucuronide, cell surface glucuronidase) by FACS. Type of series: cell-based. To be noted: 0.5 μg/ml vs DMSO. How it is done:
MC-9 cells were stimulated for exocytosis as described above and then incubated in enyme substrate buffer (BSA free MT, pH 4.3-7.4 range) containing the substrate ELF-97 Glucuronide (250 NM) for 15 minutes at 37° C. The cells were washed one time in MT and then viewed in the microscope or on the flowcytometer. Further methodologies are described in the preceding examples.

Series [4] deals with MC-9 cells. Put plainly: Population based exocytic enzyme activity assay on cell supernatant. The conditions noted are these: 2 μm, 30 minutes, vs DMSO. How it is done:
(§4) Experiments were carried out in modified tyrodes buffer (MD which consisted of NaCl (137 mM), KCl (2.7 mM), CaCl2 (1.8 mM), MgCl2 (1 mM), Glucose (5.6 mM), Hepes (20 mM, pH 7.4), and bovine serum albumin (0.1%). MC-9 cells were spun at 400×g and the media was aspirated. The cells were then washed with MT, respun/aspirated and taken up in MT at a density of 5×10^6 cells/ml. Cells were then treated with either DMSO or ionophore for 30 minutes (or the time was varied if a timecourse). The cells were then pelleted with the supernatant collected for enzymatic analysis; in some cases, the cells then processed for flow cytometry. All stimulations were carried out at 37° C. Stimulations of RBL-2H3 cells were carried out by washing the adherent cells one time in MT and then adding warmed MT (1 ml/10^6 cells) containing the stimulus. The cells were incubated at 37° C. for 30 minutes and the supernatant was harvested for further analysis. […]
(§5) Enzyme assays were carried out on cell supernatants and pellets following exocytic stimulation. […] The plate was read on a fluorescence plate reader (Wallac, Inc.) using excitation 380 nm/emission 440 nm filters every 3 minutes for five times to obtain an enzymatic rate; analyses were carried out in triplicate.

Series [5] deals with MC-9 cells. Description: Styryl dye (FM 1-43 / FM 4-64) uptake exocytosis assay by FACS. To be noted: 2 μM vs DMSO. Type of series: cell-based. The procedure: as §4, with “analysis. In some of the examples, (Examples 4-6), the plate bound cells were stained for annexin and then removed from the flask using No-Zyme (Collaborative Research, Inc.) for further processing for flow cytometry.” for “analysis.”
The cells were prepared as described above. […] The cells were then ready for analysis in the flow cytometer (see Example 2).

Series [6] deals with MC-9 cells. Description: Annexin-V staining exocytosis assay by FACS. Type of series: cell-based. The procedure:
as §1
Cells post exocytic stimulus were stained with annexin-PITC at a dilution of 1/100 in MT for 10 minutes at room temperature. The cells were then washed one time in MT, taken up in MT and viewed in the flow cytometer or microscope. For indirect labeling, annexin-biotin was added to the MT during the stimulation procedure at a dilution of 1/200. The cells were then pelleted in ice cold MT, spun, aspirated, and taken up in ice cold MT with streptavidin-APC at a dilution of 1/200 and kept on ice for 15 minutes. […]

The subject of series [7] is MC-9 cells. Description: Propidium iodide staining (plasma membrane integrity) by FACS. The conditions noted are these: 2 μm vs DMSO. Type of series: cell-based. How it is done: as §1, with “The following day they were washed one time in MT and stimulated as described above with the exception that bovine serum albumin coupled to DNP was used as the stimulus at 100 ng/ml.” left out

In series [8] the test system is MC-9 cells. Put plainly: Lysotracker green release from granules by FACS. Type of series: cell-based. The procedure: Lysotracker dyes (blue, green, and red) were loaded into cells by diluting them to a final concentration of 1 μM in complete media and incubating the cells for 60 minutes at 37° C. in their presence. After loading, the cells were washed two times in MT and then were ready for further analysis or stimulation. Further methodologies are described in the preceding examples.

The test system of series [9] is RBL-2H3 cells. Put plainly: Population based exocytic enzyme activity assay on cell supernatant, antigen crosslinking. The conditions noted are these: RBL-2H3 sensitized 16 hours with varying IgE anti-DNP, stimulated with increasing BSA-DNP. How it is done: as §4, §5
Series [10] has as its system RBL-2H3 cells. Put plainly: Annexin-V-FITC staining of exocytic granules, antigen crosslinking, microscopy. To be noted: IgE-sensitized RBL-2H3 cells, 100 ng/ml vs MT buffer only. Type of series: cell-based. How it is done: as §4, with “analysis. In some of the examples, (Examples 4-6), the plate bound cells were stained for annexin and then removed from the flask using No-Zyme (Collaborative Research, Inc.) for further processing for flow cytometry.” for “analysis.”
Cells post stimulation or staining were mounted onto glass slides and coverslipped; these were directly visualized by brighffield and fluorescence microscopy on an inverted microscope (TE300, Nikon) using standard BFP, FITC, or TRITC filter sets. […]

Setting [11] is: MC-9 cells, 0, 1, 2, 3 μM, four-parameter analysis.

On to `CNc1ccc2oc(C[C@H]3O[C@@]4(CC[C@H]3C)O[C@H]([C@H](C)C(=O)c3ccc[nH]3)[C@H](C)C[C@H]4C)nc2c1C(=O)O` [A23187], for which the “light scatter changes (side scatter vs. forward scatter)” value in series [1] (MC-9 cells, 0.5 ug/ml, 0, 5 and 30 minutes) is on record as “Time dependent scatter changes are evident”; in series [2], “Time dependent scatter changes are evident”. The “ELF-97 signal (cell surface enzymatic precipitate, in situ glucuronidase activity)” value in [3] is reported as “significant increase in signal”.

Regarding `C[C@H](CCC(=O)O)C[C@H](C)C[C@H](C)C(=O)/C=C(\O)[C@H](C)C[C@H](C)C/C=C/[C@@H](C)[C@@H](O)[C@@H](C)[C@@H](O)C[C@@H]1CC[C@@](C)([C@H]2CC[C@@](C)([C@@H](C)O)O2)O1` [ionomycin], in series [4], the “glucuronidase or hexosaminidase activity in the supernatant” value was “Stimulated release of granule enzymatic activity is evident”. Further, in [1] (setting [11]), the forward scatter result is listed as “increases” and the side scatter entry was “decreases”. The “forward and side scatter” value in series [1] (MC-9 cells, 2 μM vs DMSO, 30 minute timepoint, data not shown) is listed as “stimulation dependent changes in both parameters”. In addition, in series [5] (channels 1 and 3), the “styryl dye fluorescence intensity (FM 4-64 and FM 1-43)” value was “clear stimulation dependent increase”. In series [5] (four-parameter analysis, data not shown), the “FM 1-43 signal” value is reported as “stimulation dependent increases in both signals”. Besides, the annexin-V-APC signal result in [6] (setting [11]) is recorded as “becomes greater”. In addition, the annexin-V-APC signal entry in series [6] (MC-9 cells, 2 μM vs DMSO, four-parameter analysis with FM 1-43, data not shown) was “stimulation dependent increases in both signals”. Further, the annexin-V-FITC binding entry in series [6] (MC-9 cells, 2 μm vs DMSO) is given as “significant increase”. The PI staining result in [7] was “no significant increase”. Moreover, in [8] (MC-9 cells loaded 1 hour, 2 μM vs DMSO), the “Lysotracker green fluorescence intensity, channel 1” value is “significant loss of signal”. The Lysotracker green signal entry in [8] (setting [11]) is “decreases”.

As for “BSA-DNP: bovine serum albumin coupled to DNP, antigen used as the stimulus”, the supernatant hexosaminidase activity entry in series [9] is listed as “dose response”. The “annexin-V-FITC staining of cell surface granules” value in series [10] is “Numerous cell surface granules are stained”.

The record behind these values is patent US8334238B2, “Multiparameter FACS assays to detect alterations in cellular parameters and to screen small molecule libraries” (Rigel, Inc., priority 1998, dated 2012).
